Experimental findings from patent US11261429B2, “Enriched and expanded human cord blood stem cells for treatment of hematological disorders” (ICAHN SCHOOL OF MEDICINE AT MOUNT SINAI, priority 2013, dated 2022) are described below.

In experiment [1] the test system is HDAC3. As to the kind of experiment: HDAC protein levels in CB-MNCs, Western blot densitometry. The experiment is classed as cell-based, human. The settings on record: 24 hr, SCR 8 μM, C433 80 μM, VPA 1.25 mM. A general note: Immunoblotting shows a protein as a band on a membrane.
Text: Cellular proteins were separated by SDS-PAGE using Novex (Invitrogen) and transferred by iBlot (Invitrogen). The membranes were probed with mAbs against individual histone deacetylases (HDAC1, HDAC2, HDAC3, HDAC4, HDAC5, HDAC6, and β-actin; Cell Signaling Technology) and developed using a chemiluminescence system with HRP-conjugated secondary antibodies (Amersham Biosciences) according to the manufacturer's instructions.
The test system of experiment [2] is ALDH+CD34+ and ALDH-CD34+ cells. As to the kind of experiment: BFU-E + CFU-Mix generated from sorted ALDH+CD34+ and ALDH-CD34+ cells. The format is cell-based, human. The text has this:
A far greater number of BFU-E+CFU-Mix were generated from ALDH+CD34+ cells generated in the presence of each of the HDACI in SF cultures as compared with SC cultures (ANOVA, p=0.001). By contrast, a greater number of BFU-E+CFU-Mix were generated from ALDH-CD34+ cells in SC cultures as compared to SF cultures. Mean±SE, ANOVA, p=0.01 (n=3).
Purified ALDH+CD34+ cells generated using SF cultures supplemented with VPA generated greater absolute numbers of BFU-E and CFU-Mix (8.4×10^7±6.7×10^7/CB collection) as compared to SC cultures (1.4×10^7±0.88×10^7; ANOVA, p=0.001) (FIG. 20A). By contrast, ALDH-CD34+ cells from SC cultures supplemented with VPA generated greater numbers of BFU-E and CFU-Mix (2.7×10^6±1.0×10^6) as compared to SF cultures (3.5×10^5±0.78×10^5) (ANOVA, p=0.01) (FIG. 20B).

Experiment [3] deals with hTERT. As to the kind of experiment: qPCR of pluripotency genes in CD34+ cells. The experiment is classed as cell-based, human. Conditions: VPA-treated CD34+ cells. How it is done: Total RNA was extracted from the human ES cell line 89 (WA09; WiCell Research Institute Inc., Madison, Wis., USA), PCs, reisolated CD34+ cells from control cultures or cultures containing VPA in SF and SC media using TRIzol and an RNeasy kit from QIAGEN, CA. Total RNA (0.5-1.0 μg) was reverse transcribed into cDNA using an RNA to cDNA EcoDry Premix kit (Clontech). The primer sequences are listed in Table 6. qPCR was performed using SYBR Green (Thermo Fisher Scientific) and the Realplex thermocycler (Eppendorf). All experiments were performed in triplicate, and non-template controls (lacking cDNA template were included in each assay. GAPDH served as an internal standard. The amplicons were run on a 2% agarose gel with a 50-bp-size (DNA ladder) marker.
In general terms: Quantitative PCR measures a nucleic acid by following its amplification.

Experiment [4] relates to NSG mice. As to the kind of experiment: Homing assay of re-isolated CD34+ cells in NSG mice. The format is in vivo. Conditions: 16 and 48 hours after infusion, versus control conditions. How it is done: The homing of re-isolated CD34+ cells (5×10^5/mouse) after treatment under control conditions or with VPA was performed as previously described (Shivtiel et at, “CD45 Regulates Homing and Engraftment of Immature Normal and Leukemic Human Cells in Transplanted Immunodeficient Mice,” Exp. Hematol. 39(12):1161-1170 (2011), which is hereby incorporated by reference in its entirety). The recipient NSG mice were purchased from the Jackson Laboratory and sublethally irradiated (300 cGy) 4 hours prior to infusion of the re-isolated CD34+ cells via the tail vein. Sixteen and 48 hours after their infusion, BM cells were harvested from 2 femurs and 2 tibias from each recipient mouse and analyzed by flow cytometry for the presence of human CD34+ cells using a human CD34-APC mAb. The homing of these cell populations was determined by quantitating the number of CD34+ cells per 10^6 acquired events in the BM of the recipient mice. […] Eight NSG mice received CD34+ cells cultured under control conditions, and 10 mice received CD34+ cells from VPA-containing cultures.

The subject of experiment [5] is NSG mice. In words: Limiting dilution analysis of SCID-repopulating cells (SRC) in NSG mice. The format is in vivo. The settings on record: for No. of mice with human cell chimerism/total number of mice transplanted: 12 to 13 weeks. The protocol: The frequency of human SRCs in PCs and the progeny of an equivalent number of CD34+ cells that were expanded under control conditions or in the presence of VPA were analyzed by limiting dilution analysis as described previously (Boitano et al., “Aryl Hydrocarbon Receptor Antagonists Promote the Expansion of Human Hematopoietic Stem Cells,” Science 329:1345-1348 (2010), which is hereby incorporated by reference in its entirety). Increasing numbers of PCs (50, 250, 500, 2,500, 5,000) or the progeny of an equivalent number of PCs cultured with VPA for 7 days or under control conditions were infused into NSG mice (n=111). The data from the limiting dilution experiments were pooled and analyzed by applying Poisson statistics to the single-hit model (n=111). The frequency was calculated using L-Calc software (StemCell Technologies Inc.) and plotted using ELDA software (bioinf.wehi.edu.au/software/elda/), available at the Walter and Eliza Hall Bioinformatics Institute of Medical Research. The tog fraction of non-responding values was converted to the percentage of negative mice using the following formula: percentage of negative mice=e log fraction.

Experiment [6] relates to ALDH activity. In words: ALDH activity (Aldefluor) in expanded CB CD34+ cells. The settings on record: cytokines, 7 days. The format is cell-based, human. The source says: Increased ALDH activity is a characteristic of primitive hematopoietic cells and cancer stem cells (Hess et al., Functional Characterization of Highly Purified Human Hematopoietic Repopulating Cells Isolated According to Aldehyde Dehydrogenase Activity,” Blood 104:1648-1655 (2004); Lioznov et al., “Aldehyde Dehydrogenase Activity as a Marker for the Quality of Hematopoietic Stem Cell Transplants,” Bone Marrow Transplant 35:909-914 (2005); Storms et al., “Distinct Hematopoietic Progenitor Compartments are Delineated by the Expression of Aldehyde Dehydrogenase and CD34,” Blood 106:95-102 (2005); Aguila et al., “SALL4 is a Robust Stimulator for the Expansion of Hematopoietic Stem Cells,” Blood 118:576-585 (2011), which are hereby incorporated by reference in their entirety). To identify cell populations with high ALDH activity, an Aldefluor kit (StemCell Technologies Inc.) was used according to the manufacturer's instructions, Cells (1×10^6/ml) were suspended in assay buffer, then half of the cells were added to the Aldefluor substrate (test sample) and the remaining half was added to DEAB inhibitor (control sample). The test and control samples were incubated for 40 minutes at 37° C. Cells were subsequently stained with CD34-APC and/or CD117-PE mAbs or an isotype-matched IgG for an additional 20 minutes. Cells were washed and analyzed by a BD FACSCanto II Flow Cytometer.

The mark [7] stands for this setting: SC cultures supplemented with VPA.
Where [8] appears, read: SF cultures supplemented with VPA.

Consider `CCCC(CCC)C(=O)O` [VPA, valproic acid], for which the “HDAC3 expression relative to b-ACTIN (%)” value in experiment [1] came out at 11.4 ± 12.4%. Further, the “absolute numbers of BFU-E and CFU-Mix from ALDH+CD34+ cells” value is listed as 1.4×10^7±0.88×10^7 in experiment [2] (setting [7]) and 8.4×10^7±6.7×10^7 /CB collection in experiment [2] (setting [8]). The figures for the “numbers of BFU-E and CFU-Mix from ALDH-CD34+ cells” value in experiment [2] (setting [7]) and in experiment [2] (setting [8]) were 2.7×10^6±1.0×10^6 and 3.5×10^5±0.78×10^5, respectively. Moreover, the hTERT expression result in experiment [3] was “not upregulated”. Further, the “homing of CD34+ cells to the marrow of NSG mice” value in experiment [4] was “increased horning of CD34+ cells”. Moreover, the “No. of SRCs generated per 1 × 10^6 CD34+ starting cells” value in experiment [5] (Poisson statistics, VPA 7 days) is 32,258. Further, in experiment [5] (VPA treatment versus control cultures), the “increase in the number of SRCs compared with cells cultured under control conditions” value is on record as 299 fold. Also, in experiment [5] (VPA treatment versus primary CB CD34+ cells), the “increase in the number of SRCs compared with PCs” value was 36 fold. Further, the “No. of mice with human cell chimerism/total number of mice transplanted” value in experiment [5] (progeny of 50 CD34+ cells) is recorded as 8/10; in experiment [5] (progeny of 250 CD34+ cells) it was 10/10; in experiment [5] (progeny of 500 CD34+ cells), 8/8; in experiment [5] (progeny of 2,500 CD34+ cells), 7/7; in experiment [5] (progeny of 5,000 CD34+ cells), 7/7. The entries for the “Frequency of ALDH+ cells” value in experiment [6] (SC cultures) and in experiment [6] (SF cultures) were 41.7 ± 3.3^A % and 86.6 ± 7.4^A %, respectively. For the same compound, the results for the “Frequency of ALDH+CD34+ cells” value in experiment [6] (SC cultures) and in experiment [6] (SF cultures) were 26.1 ± 5.5^A % and 71.1 ± 3.1^A %, respectively. Further, the figures for the “Frequency of ALDH+CD34+CD117+ cells” value in experiment [6] (SC cultures) and in experiment [6] (SF cultures) were 29.4 ± 1.4^A % and 51.3 ± 4.0^A %, respectively.
